Source: patent publication US8288379B2, “Thia-triaza-cyclopentazulenes” (Boehringer Ingelheim International GmbH, priority 2009, dated 2012)

Tests used:
[1] = biological target: T1, FRAP1 (mTOR) kinase (Homo sapiens, UniProt P42345); experiment: Inhibition of mTOR-induced p-4E-BP1 phosphorylation (TR-FRET mTOR Activity Kit; Invitrogen); assay type: biochemical; conditions: 400 nM GFP-4E-BP1 substrate, ~150 ng/mL mTOR, one hour at room temperature
T1 construct: purchased Invitrogen PV4753
Text: Inhibition of mTOR-Induced p-4E-BP1 Phosphorylation (TR-FRET mTOR Activity Kit; Invitrogen)
• GFP-4E-BP1 substrate; Invitrogen order no. PV4759 • Lanthascreen Tb-anti-p4E-BP1 (pThr46) Antibody Kit; Invitrogen order no. PV4758 • FRAP1 (mTOR) kinase; Invitrogen order no. […] Preparation of Reagents: Note: Thaw and keep mTOR, the substrate, ATP, and the antibody on ice prior to making working dilutions. Working dilutions of these components can be kept at room temperature for short periods of time the day of use. 1. Add 2 ml of 5× Assay Buffer to 8 ml water to prepare 10 ml of 1× Assay Buffer. Note: The concentration of 1× Assay Buffer is 50 mM HEPES pH 7.5, 0.01% Polysorbate 20, 1 mM EGTA, and 10 mM MnCl2. 2. Prepare Antibody/EDTA Solution by first adding 2.75 n1 of Tb-anti p4E-BP1 Antibody to 2397 n1 of LanthaScreen™ TR-FRET Dilution Buffer. Then, add 100 n1 of 0.5 M EDTA. 3. Prepare 4× Substrate/Enzyme Solution by first adding 72 n1 of GFP-4E-BP1 (22 nM) to 926 n1 of 1× Assay Buffer. Then, add 1.6 n1 of mTOR (0.45 mg/mL). 4. Prepare ATP Solution by adding 3.2 n1 of 10 mM ATP to 1997 n1 of 1× Assay Buffer. Serial Dilution of Inhibitors (16 Point Curve): Note: It is recommended that inhibitors be serially diluted in DMSO, then diluted to a 4× working concentration with 1× Assay Buffer. The below procedure describes dilution of compounds in a 96-well format prior to transfer to a 384-well format for kinase assays. This procedure calls for dilution of the compounds in 2 adjacent columns of a 96-well plate, which upon transfer to a single column of a 384-well plate with an 8-channel pipette will align the samples in order of concentration. 1. Dispense 40 n1 of DMSO to two adjacent columns of a 96 well plate per compound (e.g. columns 1 and 2). 2. Add 10 n1 of inhibitor stock (10 mM) to the first well of the first column (A1) and mix. 3. Remove 10 n1 from A1 and transfer to the adjacent well in the next column (B1) and mix. 4. Remove 10 n1 from B1 and transfer to the next well in the first column (B2) and mix. 5. Repeat this dilution pattern through well H1 and leave the last well (H2) as DMSO only. 6. Remove 4 n1 of diluted compounds and add to 96 n1 of 1× Assay Buffer in a 96-well plate making 4× compound dilutions. Kinase Reaction: 1. Add 2.5 μl of 4× compound dilutions from the first column of the 96-well plate to every other well of column 1 of a 384-well plate with an 8-channel pipette. Repeat for columns 2 and 3. 2. Add 2.5 n1 of 4× compound dilutions from the second column of the 96-well plate to the empty wells of column 1 of the 384-well plate with an 8-channel pipette. Repeat for columns 2 and 3. Note: This procedure aligns the compound dilutions in order of concentration. 3. Add 2.5 n1 of 4× Enzyme/Substrate Solution to all columns 1-6. 4. Preincubate for 30 min. at RT (shaker). 5. Add 5 n1 of ATP Solution to all wells to start reactions. 6. Shake the assay plate on a plate shaker for 30 seconds. 7. Incubate the assay plate for one hour at room temperature (20-25° C.). Stop Step and Fluorescence Detection: 1. Add 10 n1 of Antibody/EDTA Solution to each well in columns 1-9. 2. Shake the assay plate on a plate shaker for 30 seconds. 3. Incubate the assay plate for one hour at room temperature (20-25° C.). 4. Measure the GFP (FRET) and terbium (reference) emission signals on a fluorescence plate reader (e.g. Perkin Elmer Envision). Data Analysis: 1. Calculate the emission ratio for each sample by dividing the GFP (FRET) signal by the terbium (reference) signal. 2. Plot the concentration of each compound versus the emission ratio. Determine the concentration of compound required to reach 50% of the maximum signal (IC50). Determination of IC50 values can be obtained by curve fitting (sigmoidal dose response, variable slope) using Prism software from GraphPad). Inhibition of Proliferation: CyQuant PC-3 Description: […]

[2] = system: PC-3 cells; experiment: Inhibition of proliferation: CyQuant PC-3; assay type: cell-based; conditions: 72 h; PC-3 human prostate carcinoma cells, incubated with compounds for 3 days, CyQuant NF DNA dye
Protocol: • GFP-4E-BP1 substrate; Invitrogen order no. PV4759 • Lanthascreen Tb-anti-p4E-BP1 (pThr46) Antibody Kit; Invitrogen order no. PV4758 • FRAP1 (mTOR) kinase; Invitrogen order no. […] Preparation of Reagents: Note: Thaw and keep mTOR, the substrate, ATP, and the antibody on ice prior to making working dilutions. Working dilutions of these components can be kept at room temperature for short periods of time the day of use. 1. Add 2 ml of 5× Assay Buffer to 8 ml water to prepare 10 ml of 1× Assay Buffer. Note: The concentration of 1× Assay Buffer is 50 mM HEPES pH 7.5, 0.01% Polysorbate 20, 1 mM EGTA, and 10 mM MnCl2. 2. Prepare Antibody/EDTA Solution by first adding 2.75 n1 of Tb-anti p4E-BP1 Antibody to 2397 n1 of LanthaScreen™ TR-FRET Dilution Buffer. Then, add 100 n1 of 0.5 M EDTA. 3. Prepare 4× Substrate/Enzyme Solution by first adding 72 n1 of GFP-4E-BP1 (22 nM) to 926 n1 of 1× Assay Buffer. Then, add 1.6 n1 of mTOR (0.45 mg/mL). 4. Prepare ATP Solution by adding 3.2 n1 of 10 mM ATP to 1997 n1 of 1× Assay Buffer. Serial Dilution of Inhibitors (16 Point Curve): Note: It is recommended that inhibitors be serially diluted in DMSO, then diluted to a 4× working concentration with 1× Assay Buffer. The below procedure describes dilution of compounds in a 96-well format prior to transfer to a 384-well format for kinase assays. This procedure calls for dilution of the compounds in 2 adjacent columns of a 96-well plate, which upon transfer to a single column of a 384-well plate with an 8-channel pipette will align the samples in order of concentration. 1. Dispense 40 n1 of DMSO to two adjacent columns of a 96 well plate per compound (e.g. columns 1 and 2). 2. Add 10 n1 of inhibitor stock (10 mM) to the first well of the first column (A1) and mix. 3. Remove 10 n1 from A1 and transfer to the adjacent well in the next column (B1) and mix. 4. Remove 10 n1 from B1 and transfer to the next well in the first column (B2) and mix. 5. Repeat this dilution pattern through well H1 and leave the last well (H2) as DMSO only. 6. Remove 4 n1 of diluted compounds and add to 96 n1 of 1× Assay Buffer in a 96-well plate making 4× compound dilutions. Kinase Reaction: 1. Add 2.5 μl of 4× compound dilutions from the first column of the 96-well plate to every other well of column 1 of a 384-well plate with an 8-channel pipette. Repeat for columns 2 and 3. 2. Add 2.5 n1 of 4× compound dilutions from the second column of the 96-well plate to the empty wells of column 1 of the 384-well plate with an 8-channel pipette. Repeat for columns 2 and 3. Note: This procedure aligns the compound dilutions in order of concentration. 3. Add 2.5 n1 of 4× Enzyme/Substrate Solution to all columns 1-6. 4. Preincubate for 30 min. at RT (shaker). 5. Add 5 n1 of ATP Solution to all wells to start reactions. 6. Shake the assay plate on a plate shaker for 30 seconds. 7. Incubate the assay plate for one hour at room temperature (20-25° C.). Stop Step and Fluorescence Detection: 1. Add 10 n1 of Antibody/EDTA Solution to each well in columns 1-9. 2. Shake the assay plate on a plate shaker for 30 seconds. 3. Incubate the assay plate for one hour at room temperature (20-25° C.). 4. Measure the GFP (FRET) and terbium (reference) emission signals on a fluorescence plate reader (e.g. Perkin Elmer Envision). Data Analysis: 1. Calculate the emission ratio for each sample by dividing the GFP (FRET) signal by the terbium (reference) signal. 2. Plot the concentration of each compound versus the emission ratio. Determine the concentration of compound required to reach 50% of the maximum signal (IC50). Determination of IC50 values can be obtained by curve fitting (sigmoidal dose response, variable slope) using Prism software from GraphPad). Inhibition of Proliferation: CyQuant PC-3 Description:
The CyQuant NF assay is based on measurement of cellular DNA content via fluorescent dye binding. Because cellular DNA content is highly regulated, it is closely proportional to cell number. […]

T1 sequence (P42345 1360-2549 limits assumed): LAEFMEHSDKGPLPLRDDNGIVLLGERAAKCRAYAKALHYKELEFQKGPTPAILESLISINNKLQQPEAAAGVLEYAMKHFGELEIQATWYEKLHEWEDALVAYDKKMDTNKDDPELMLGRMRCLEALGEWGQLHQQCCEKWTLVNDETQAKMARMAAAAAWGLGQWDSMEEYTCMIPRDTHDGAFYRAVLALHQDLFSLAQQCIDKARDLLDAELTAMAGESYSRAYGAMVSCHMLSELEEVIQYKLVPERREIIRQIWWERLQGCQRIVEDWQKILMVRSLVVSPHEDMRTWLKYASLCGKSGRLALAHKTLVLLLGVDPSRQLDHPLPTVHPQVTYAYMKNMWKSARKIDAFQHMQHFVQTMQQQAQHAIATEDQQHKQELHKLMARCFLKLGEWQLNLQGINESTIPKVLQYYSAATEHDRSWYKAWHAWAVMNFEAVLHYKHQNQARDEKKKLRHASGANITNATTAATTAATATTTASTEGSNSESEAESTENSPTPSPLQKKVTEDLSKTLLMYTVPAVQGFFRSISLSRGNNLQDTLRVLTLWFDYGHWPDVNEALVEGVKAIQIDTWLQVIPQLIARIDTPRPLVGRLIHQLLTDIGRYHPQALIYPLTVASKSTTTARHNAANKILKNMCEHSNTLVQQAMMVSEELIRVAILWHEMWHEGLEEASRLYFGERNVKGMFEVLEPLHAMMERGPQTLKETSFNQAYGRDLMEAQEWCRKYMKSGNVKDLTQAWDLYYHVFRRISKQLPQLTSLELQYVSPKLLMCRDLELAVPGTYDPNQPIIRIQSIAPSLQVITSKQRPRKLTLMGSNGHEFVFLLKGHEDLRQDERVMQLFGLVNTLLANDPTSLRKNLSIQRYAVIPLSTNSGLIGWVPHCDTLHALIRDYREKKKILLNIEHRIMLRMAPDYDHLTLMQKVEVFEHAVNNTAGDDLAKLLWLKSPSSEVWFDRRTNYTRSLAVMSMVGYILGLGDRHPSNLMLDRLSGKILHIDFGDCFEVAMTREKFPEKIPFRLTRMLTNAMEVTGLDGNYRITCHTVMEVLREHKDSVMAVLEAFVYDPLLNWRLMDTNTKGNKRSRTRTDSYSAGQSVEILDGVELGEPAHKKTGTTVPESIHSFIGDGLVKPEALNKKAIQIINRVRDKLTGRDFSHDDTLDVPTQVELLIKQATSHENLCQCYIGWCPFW

SMILES | IC50 [1] | EC50 [2]
CCNc1ccc(-c2nn(-c3ccccc3C)c3c2CCCc2nc(NC(=O)CCCN(C)C)sc2-3)cn1 [Example B-70] | 0.062 µM | 0.284 µM
C=CCn1nc(-c2ccc(C)nc2)c2c1-c1sc(NC(C)=O)nc1CCC2 [Example B-25] | 0.899 µM | 0.437 µM
CC(=O)Nc1nc2c(s1)-c1c(c(-c3ccc(N)nc3)nn1-c1cccnc1C)CCC2 [Example B-138, N-[3-(6-Amino-pyridin-3-yl)-1-(2-methyl-pyridin-3-yl)-1,4,5,6-tetrahydro-9-thia-1,2,7-triaza-cyclopent[e]azulen-8-yl]acetamide] | 0.038 µM | 0.236 µM
CC(=O)Nc1nc2c(s1)-c1c(c(-c3c[nH]cn3)nn1-c1ccccc1F)CCC2 [Example B-111, N-[1-(2-Fluoro-phenyl)-3-(1H-imidazol-4-yl)-1,4,5,6-tetrahydro-9-thia-1,2,7-triaza-cyclopenta[e]azulen-8-yl]-acetamide] | 0.004 µM | 0.038 µM
COCCC(=O)Nc1nc2c(s1)-c1c(c(-c3ccc(N)nc3)nn1C(C)C)CCC2 [Example B-133, N-[3-(6-Amino-pyridin-3-yl)-1-isopropyl-1,4,5,6-tetrahydro-9-thia-1,2,7-triaza-cyclopenta[e]azulen-8-yl]-3-methoxy-propionamide] | 0.065 µM | 0.152 µM
COc1ccccc1-n1nc(-c2c[nH]cn2)c2c1-c1sc(NC(C)=O)nc1CCC2 [Example B-117] | 0.035 µM | 0.306 µM
CCCn1nc(-c2ccc(C)nc2)c2c1-c1sc(NC(C)=O)nc1CCC2 [Example B-92] | 0.152 µM | 0.221 µM
CNc1ccc(-c2nn(-c3ccccc3C)c3c2CCCc2nc(NC(=O)CCc4ncc[nH]4)sc2-3)cn1 [Example B-109] | 0.049 µM | 0.162 µM
Cc1ccccc1-n1nc(-c2ccc(N)nc2)c2c1-c1sc(NC(=O)N(C)C)nc1CCC2 [Example B-55] | 0.17 µM | 0.45 µM
CCn1nc(-c2ccc(NC)nc2)c2c1-c1sc(NC(=O)N(C)C)nc1CCC2 [Example B-48] | 0.451 µM | 0.71 µM
CC(=O)Nc1nc2c(s1)-c1c(c(-c3ccc(C)nc3)nn1C(C)C)CCC2 [Example B-09, N-[1-Isopropyl-3-(6-methyl-pyridin-3-yl)-1,4,5,6-tetrahydro-9-thia-1,2,7-triaza-cyclopent[e]azulen-8-yl]acetamide] | 0.266 µM | 0.334 µM
CNc1ccc(-c2nn(-c3cccc(OC)c3)c3c2CCCc2nc(NC(C)=O)sc2-3)cn1 [Example B-89] | 0.057 µM | 0.072 µM
CN(C)C(=O)Nc1nc2c(s1)-c1c(c(-c3ccc(N)nc3)nn1-c1ccccc1)CCC2 [Example B-96, 3-[3-(6-Amino-pyridin-3-yl)-1-phenyl-1,4,5,6-tetrahydro-9-thia-1,2,7-triaza-cyclopenta[e]azulen-8-yl]-1,1-dimethyl-urea] | 0.067 µM | 0.289 µM
CC(=O)Nc1nc2c(s1)-c1c(c(-c3c[nH]c(C)n3)nn1CC(C)C)CCC2 [Example B-121, N-[1-Isobutyl-3-(2-methyl-1H-imidazol-4-yl)-1,4,5,6-tetrahydro-9-thia-1,2,7-triaza-cyclopenta[e]azulen-8-yl]-acetamide] | 0.035 µM | 0.073 µM
CC(=O)Nc1nc2c(s1)-c1c(c(-c3ccc(N)nc3)nn1C1CCCOC1)CCC2 (stereo not shown) [Example B-65, N-[3-(6-Amino-pyridin-3-yl)-1-(tetrahydro-pyran-3-yl)-1,4,5,6-tetrahydro-9-thia-1,2,7-triaza-cyclopenta[e]azulen-8-yl]-acetamide] | 0.013 µM | 0.075 µM
CC(=O)Nc1nc2c(s1)-c1c(c(-c3c[nH]cn3)nn1-c1ccc(C(=O)N(C)C)cc1Cl)CCC2 [Example B-114] | 0.004 µM | 0.382 µM
CNc1ccc(-c2nn(-c3ccccc3Cl)c3c2CCCc2nc(NC(=O)N(C)C)sc2-3)cn1 [Example B-45] | 0.782 µM | 0.375 µM
